The values that follow come from US10624887B2, “Compositions of (-)-17-(cyclobutylmethyl)morphinan-3,14,-diol” (priority 2010, dated 2020).

“Also recorded” adds a separate entry of the source.

For this assay, the system named is streptozotocin (STZ) induced diabetes neuropathy. Put plainly: Streptozotocin induced diabetic neuropathy, mechanical allodynia (von Frey filaments). Format: in vivo, Wistar rats. The note with it: STZ diabetic neuropathic rats. The method, then:
The aim of this study was to evaluate the effect of oral administration of butorphanol in rats with streptozotocin (STZ) induced diabetes neuropathy. A single injection of streptozotocin (STZ) (40-70 mg/kg, i.p.) was used to induce diabetes in rats. The primary measurements were made mechanical and thermal allodynia designed to detect effects of the treatment(s) on neuropathic pain.
Wistar rats weighing 250±20 g were maintained on standard laboratory diet and having free access to tap water ad lib were employed in the present study. They were housed in the animal house and were exposed to 12 hr cycle of light and dark. The experiments were conducted in a semi-sound proof laboratory. Care of the animals was in accordance with guidelines for experimentation on animals.
The STZ-induced diabetes model was adapted from Arison et al (1967). […]
Mechano-allodynia was assessed using von Frey filaments. […] Both hind paws were tested for allodynia and the average of the two was recorded. Results were expressed in grams and determined before and 30 and 60 min after the administration of the test drugs.
The anti-nociceptive effect was plotted assessed having time (relative to dosing time point) on the x-axis and percent maximum possible effect (% MPE) on the y-axis. The results were expressed as mean±standard error of means (S.E.M.). […]

With `Oc1ccc2c(c1)[C@@]13CCCC[C@@]1(O)[C@@H](C2)N(CC1CCC1)CC3` [butorphanol, (−)17-(Cyclobutylmethyl)morphinan-3,14-diol], the mechanical withdrawal threshold entry (oral 1, 3, 10, 30 mg/kg, FIG. 19) is “dose dependent increase; also recorded: significant increase”. Under “oral”, the “time of peak effect post-administration (mechanical allodynia)” value is reported as 30 min.
